PMC12036814 (Angewandte Chemie (International Ed. in English), 2025)

Experiments:
[1] = tested on: periodontal ligament cell line (PDL‐hTERT); assay: Whole proteome analysis and pathway analysis of treated PDL-hTERT cells; format: cell-based, human; set-up: dose or concentration left out as unconfirmed; details: […] μM, 3 days, versus vehicle
[2] = tested on: HEK‐293 and PDL‐hTERT cells; assay: MTT assay, relative metabolic activity after 3 days; format: cell-based, human; details: 3 days of treatment
Method: Methods and Experimental Procedures
(Alfa Aesar, Haverhill, USA, Cat# J66943 ) stocks were prepared in sterile -filtered 0.1 N HCl to a
maximum concentration of 50 mM. HCl was used as vehicle control, diluted in culture medium, and
Cell culture experiments were performed in HEK 293, A549 or PDL-hTERT cells1 cultured in DMEM high
glucose medium supplemented with 10% FCS and 2 mM glutamine ( all, Sigma-Aldrich, St. Louis, USA,
Cat# G7513) in 5% CO2 atmosphere at 37 °C in Heracell 150i incubators (Thermo Fisher Scientific,
Waltham, USA). The human periodontal ligament (PDL -hTERT) cell line was provided by Prof. Denitsa
Docheva. During standard cell passaging accutase (Sigma-Aldrich) or 2,5x trypsin/0.5% EDTA in PBS
(Capricorn Scientific, Ebsdorfergrund, Germany) was used for cell detachment. Cell dishes in various
sizes (10 cm, 15 cm) and flasks (T75, T175) were used for cultivation (Sarstedt, Nümbrecht, Germany,
purchased from Thermo Fisher Scientific, Waltham, USA, Cat# 130184, 130188.
HEK or PDL-hTERT cells (1,5 x 10^3 cells/well) were seeded into 96 -well plates and grown for 24 h. […]
removed by suction and the formed formazan crystals dissolved in 200 μL DMSO. The read-out was
performed with an Infinite M200 Pro microplate reader (Tecan, Männedorf, Switzerland) at 570 nm
and background was subtracted at 630 nm. The absorbance values were normalized to DMSO/0.1 N […]

[3] = tested on: PDL-hTERT cells; assay: Live/dead staining and microscopy (morphology); format: cell-based; set-up: dose or concentration left out as unconfirmed; details: […] µM, 7 days
Method: For PDL-hTERT cells (9 x 10^4 cells /well) were plated in each well of 6 -well plates (Greiner Bio-One,
Frickenhausen, Germany) and incubated for 3 days at 37 °C and 5% CO2. Afterwards, cells were treated
Afterwards, the cells were stained with 1 µM calcein
acetoxymethyl (calcein AM) and 10 µM propidium iodide, diluted from 100 µM and 1 mM stock
solutions respectively. The diluent was given to the cells in a mixture of 1:1 PBS to culture medium.
Calcein AM is cell permeable and in living cells is converted to fluorescent calcein by intracellular
estarases, thus labelling the cells in green colour. Propidium iodide is a fluorescent dye that can only
traverse cells with damaged membranes, thus marking dead cells in red colour (to note: dead cells
frequently detach during the staining procedure). Last, cells were imaged on day 1, 4, and 7 in phase -
contrast, FITC (green) and Cy3 (red) fluorescent channels using Zeiss AxioVert.A1 microscope equipped
with AxioCam ICc1 camera (Carl Zeiss, Göttingen, Germany). Each image was automatically processed
using the “Min/Max” option provided by the micriscope software Zen 2.3 lite (Carl Zeiss). The
experiment was repeated three independent times (n = 3), each performed in duplicate wells for
control and Cipro-containing groups.

[4] = target: T1, AIFM1 (Homo sapiens, UniProt O95831); assay: Gel-based labelling of recombinant AIFM1 spiked into HEK-293 lysate; format: binding; details: excess compound added prior to probe
T1 construct: made in house; host or cells: E. coli Rosetta2
Method: AIFM1 expression & purification
Recombinant AIFM1 was expressed in a Rosetta2 E. coli strain. Bacterial growth was conducted in LB media supplemented with riboflavin and FAD shaking at 37°C and 180 rpm. Expression was induced with 1.0 mM IPTG and incubated for further 16 h before harvesting. Cells were harvested on ice in PBS and cell pellets stored at -20°C. Cells were lysed by French press and the 6xHis-tagged constructs were purified by Immobilized Metal Affinity Chromatography using Ni Sepharose (6 Fast Flow, GE). The centrifugation-cleared bacterial lysate was bound to beads in binding buffer (200 mM NaCl, 20 mM Tris/Cl pH = 7.4). […]
For gel-based fluorescence labelling of recombinant AIFM1, 1.7 µM recombinant protein was spiked - in to PBS or PBS -diluted HEK293 cell lysate ( 100 µg per reaction sample). […]
Click Master-mix (8 µL, 100 µM TAMRA-azide, Baseclick, Neuried, Germany, Cat# BCFA-008-10, 500 µM BTTAA ligand, Jena Bioscience, Jena, Germany, CLK -067, 1 mM CuSO4) was added and the CuAAC reaction started by addition of 2 µL of aq. sodium ascorbate (c end= 2 mM). […] Fluorescence scanning was performed using a Las-3000 fluorescence darkbox (Fujifilm, Minato, Japan) with a Fujinon VRF 43LMD Lens, 605DF40 filter and 520 nm EPI excitation wavelength and loading controls were developed with Coomassie stain afterwards. […]

[5] = target: NUDT1 (Homo sapiens, UniProt P36639); assay: Gel-based AfBPP labelling of recombinant NUDT1 spiked into human lysate; format: binding; set-up: Full length NUDT1 gene synthesis; N-terminal His tag with thrombin site from pET28a(+) (NdeI/XhoI) (N, cleaved yes); made in house; host or cells: E. coli BL21 (DE3); details: parent compound added before probe

T1 sequence (O95831 102-613): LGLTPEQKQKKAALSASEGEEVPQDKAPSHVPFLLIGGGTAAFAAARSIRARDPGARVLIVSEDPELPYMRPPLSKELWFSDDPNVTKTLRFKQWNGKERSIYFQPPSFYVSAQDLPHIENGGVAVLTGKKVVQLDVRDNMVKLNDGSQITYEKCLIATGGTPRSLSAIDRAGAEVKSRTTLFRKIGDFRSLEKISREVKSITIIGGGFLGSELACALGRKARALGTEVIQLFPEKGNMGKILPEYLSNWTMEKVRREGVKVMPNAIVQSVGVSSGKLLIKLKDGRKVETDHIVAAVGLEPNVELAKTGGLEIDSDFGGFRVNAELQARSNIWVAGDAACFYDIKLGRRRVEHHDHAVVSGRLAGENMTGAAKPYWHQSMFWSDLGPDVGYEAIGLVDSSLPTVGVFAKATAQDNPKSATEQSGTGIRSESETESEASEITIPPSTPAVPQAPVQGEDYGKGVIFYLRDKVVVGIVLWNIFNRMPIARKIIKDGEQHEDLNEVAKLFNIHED

Compound: O=C(O)c1cn(C2CC2)c2cc(N3CCNCC3)c(F)cc2c1=O [Ciprofloxacin]
- regulation of ETC complex I and IV subunits [1]: significant down‐regulation of complex I (blue) and complex IV (green) subunits of the ETC
- approximate apparent IC50 (metabolic activity, MTT) [2]: well above the reported plasma concentrations
- cell morphology [3]: cell rounding
- competition of Cipro P1 labelling of recombinant AIFM1 [4]: strong reduction of signal intensity
- competition of Cipro P2 / Levo P2 labeling of recombinant NUDT1 [5]: competed
